Consider 14 compounds from patent US9353113B2, “Tetrahydrocarboline derivative” (ONO PHARMACEUTICAL CO., LTD., priority 2011, dated 2016).

Structures can show the parent of a compound that is named as a salt.

One data set addresses human ENPP2 (Homo sapiens (Human), UniProt Q13822). Description: Measurement of human ENPP2 inhibitory activity. The class given is biochemical. The settings on record: human ENPP2, 16:0-LPC substrate. On the procedure:
10 μL of a test compound solution (10% dimethyl sulfoxide) at each concentration and 40 μL of a 5 μg/mL human ENPP2 solution (buffer A: 100 mmol/L Tris-HCl (pH 9.0), 500 mmol/L NaCl, 5 mmol/L MgCl2, 0.05% Triton X-100) were mixed, 50 μL of a 2 mmol/L 16:0-lysophosphatidylcholine (LPC) solution (buffer A) was further added to react at 37° C. for 24 hours. Subsequently, to 10 ill, of the reaction solution was added 90 III, of a measurement buffer (0.5 mmol/L aminoantipyrine, 0.3 mmol/L N-ethyl-N-(2-hydroxy-3-sulfopropyl)-3-methylaniline, 1 U/mL peroxidase, 3 U/mL choline oxidase, 100 mmol/L Tris-HCl (pH 8.5), 5 mmol/L CaCl2) to react at 37° C. for 20 minutes, and spectrophotometric determination was performed at 555 nm.
Using a standard curve, a choline production amount (enzyme activity) in each test compound was calculated, and the inhibitory activity rate of each test compound was calculated, wherein the enzyme activity in a positive control to which a test compound is not added, was a 0% inhibition rate, and the enzyme activity in a negative control to which a test compound and human ENPP2 are not added, were 100% inhibition. Further, concerning the present compounds shown in Table 3, an IC50 value was calculated from inhibitory activity rate at each concentration.
Compound `CC(C)(CCCC(=O)N1CCc2c(n(Cc3cnc(C(F)(F)F)s3)c3ncccc23)C1)C(=O)O` [Example 3(50), 2,2-dimethyl-6-oxo-6-(9-{[2-(trifluoromethyl)-1,3-thiazol-5-yl]methyl}-5,6,8,9-tetrahydro-7H-pyrido[4′,3′:4,5]pyrrolo[2,3-b]pyridin-7-yl)hexanoic acid] returned an IC50 of 4.5 nM. The same measure, in the same setting: to `CC1(C)[C@@H](CC(=O)N2CCc3c(n(Cc4ccc(C(F)(F)F)cc4)c4ncccc34)C2)CC[C@@]1(C)C(=O)O` [Example 6(53), (1R,3R)-1,2,2-trimethyl-3-(2-oxo-2-{9-[4-(trifluoromethyl)benzyl]-5,6,8,9-tetrahydro-7H-pyrido[4′,3′:4,5]pyrrolo[2,3-b]pyridin-7-yl}ethyl)cyclopentanecarboxylic acid] belongs 10 nM; to `Cc1nc(C(F)(F)F)sc1Cn1c2c(c3cccnc31)CCN(C(=O)C[C@H]1CC[C@@](C)(C(=O)O)C1(C)C)C2` [Example 6(63), (1R,3R)-1,2,2-trimethyl-3-[2-(9-{[4-methyl-2-(trifluoromethyl)-1,3-thiazol-5-yl]methyl}-5,6,8,9-tetrahydro-7H-pyrido[4′,3′:4,5]pyrrolo[2,3-b]pyridin-7-yl)-2-oxoethyl]cyclopentanecarboxylic acid], 8 nM; to `O=C(CC12CCC(C(=O)O)(CC1)C2)N1CCc2c(n(Cc3cnc(C(F)(F)F)s3)c3ncccc23)C1` [Example 6(65), 4-[2-oxo-2-(9-{[2-(trifluoromethyl)-1,3-thiazol-5-yl]methyl}-5,6,8,9-tetrahydro-7H-pyrido[4′,3′:4,5]pyrrolo[2,3-b]pyridin-7-yl)ethyl]bicyclo[2.2.1]heptane-1-carboxylic acid], 5.1 nM. Same read-out and setting: under `O=C(O)C1CCN(CC(=O)N2CCc3c(n(Cc4ccc(OC(F)(F)F)cc4)c4ncccc34)C2)CC1` [Example 7(3), 1-(2-oxo-2-{9-[4-(trifluoromethoxy)benzyl]-5,6,8,9-tetrahydro-7H-pyrido[4′,3′:4,5]pyrrolo[2,3-b]pyridin-7-yl}ethyl)-4-piperidinecarboxylic acid hydrochloride] stands 28 nM.

In the case of `C[C@@H]1CN(CC(=O)N2CCc3c(n(Cc4ccc(C(F)(F)F)s4)c4ncccc34)C2)C[C@H](C)N1CC(=O)O` [Example 7(41), rel-{(2R,6S)-2,6-dimethyl-4-[2-oxo-2-(9-{[5-(trifluoromethyl)-2-thienyl]methyl}-5,6,8,9-tetrahydro-7H-pyrido[4′,3′:4,5]pyrrolo[2,3-b]pyridin-7-yl)ethyl]-1-piperazinyl}acetic acid dihydrochloride], half-maximal inhibition (IC50) required 4.9 nM. Still for that read-out and setting: to `O=C(O)C1=CCN(CC(=O)N2CCc3c(n(Cc4ccc(C(F)(F)F)s4)c4ncccc34)C2)CC1` [Example 7(45), 1-[2-oxo-2-(9-{[5-(trifluoromethyl)-2-thienyl]methyl}-5,6,8,9-tetrahydro-7H-pyrido[4′,3′:4,5]pyrrolo[2,3-b]pyridin-7-yl)ethyl]-1,2,3,6-tetrahydro-4-pyridinecarboxylic acid] belongs 16 nM; to `O=C(CCCC1(C(=O)O)CC1)N1CCc2c(n(Cc3ccc(C(F)(F)F)s3)c3ncccc23)C1` [Example 9(1), 1-[4-oxo-4-(9-{[5-(trifluoromethyl)-2-thienyl]methyl}-5,6,8,9-tetrahydro-7H-pyrido[4′,3′:4,5]pyrrolo[2,3-b]pyridin-7-yl)butyl]cyclopropanecarboxylic acid], 12 nM. Take `C[C@]1(C(=O)O)CC[C@H](CC(=O)N2CCc3c(n(Cc4ccc(C(F)(F)F)s4)c4ncccc34)C2)CC1` [Example 10(2), trans-1-methyl-4-[2-oxo-2-(9-{[5-(trifluoromethyl)-2-thienyl]methyl}-5,6,8,9-tetrahydro-7H-pyrido[4′,3′:4,5]pyrrolo[2,3-b]pyridin-7-yl)ethyl]cyclohexanecarboxylic acid]: half-maximal inhibition (IC50) was put at 17 nM. Same read-out and setting: to `C[C@]1(C(=O)O)CC[C@H](CC(=O)N2CCc3c(n(Cc4cnc(C(F)(F)F)s4)c4ncccc34)C2)CC1` [Example 10(5), trans-1-methyl-4-[2-oxo-2-(9-{[2-(trifluoromethyl)-1,3-thiazol-5-yl]methyl}-5,6,8,9-tetrahydro-7H-pyrido[4′,3′:4,5]pyrrolo[2,3-b]pyridin-7-yl)ethyl]cyclohexanecarboxylic acid] belongs 3.8 nM; to `COc1cc(CC(=O)N2CCc3c(n(Cc4ccc(OC(F)(F)F)cc4)c4ncccc34)C2)ccc1C(=O)O` [Example 11(12), 2-methoxy-4-(2-oxo-2-{9-[4-(trifluoromethoxy)benzyl]-5,6,8,9-tetrahydro-7H-pyrido[4′,3′:4,5]pyrrolo[2,3-b]pyridin-7-yl}ethyl)benzoic acid], 5.4 nM.

As to `COc1cc(CC(=O)N2CCc3c(n(Cc4sc(C(F)(F)F)nc4C)c4ncccc34)C2)cc(OC)c1C(=O)O` [Example 11(24), 2,6-dimethoxy-4-[2-(9-{[4-methyl-2-(trifluoromethyl)-1,3-thiazol-5-yl]methyl}-5,6,8,9-tetrahydro-7H-pyrido[4′,3′:4,5]pyrrolo[2,3-b]pyridin-7-yl)-2-oxoethyl]benzoic acid], the IC50 worked out at 8.4 nM. Turning to `O=C(C[C@H]1CC[C@H](C(=O)O)CC1)N1CCc2c(n(Cc3ccc(F)cc3F)c3ncccc23)C1` [Reference Example 2, trans-4-{2-[9-(2,4-difluorobenzyl)-5,6,8,9-tetrahydro-7H-pyrido[4′,3′:4,5]pyrrolo[2,3-b]pyridin-7-yl}-2-oxoethyl]cyclohexanecarboxylic acid, reference compound], the IC50 is 14 nM.

In the next data set the test system is SD male rat. Description: Measurement of urethra internal pressure in rat under anesthesia. In kind it is in vivo. Conditions: dose 1.0 mg/kg intravenously. From the text: A SD male rat (Crl: CD(SD), Charles River Laboratories Japan, Inc., 7-10 weeks old) which has fasted since the evening of the day before this experiment was anesthetized by subcutaneous administration of 1.5 g/kg urethane at a back of a neck. After an abdominal part was median incised, a catheter for duodenum was inserted within lumen of duodenum and then tied down by string. A lower abdominal part was median incised, and a urethra was ligated at around pubis. A urethral catheter for measuring a urethra internal pressure, equipped with a collar at a tip and filled with a physiological saline was inserted into a urethra through an incised bladder top, and ligation-fixed at a bladder neck part. The urethral catheter was connected to a pressure transducer (manufactured by Nihon Kohden Corporation), and a urethra internal pressure was measured. […] A urethra internal pressure reduction rate (%) was calculated based on a urethra internal pressure after compound administration, wherein a value obtained by subtracting a postmorten basline value (minimum value of urethra internal pressure for 10 minutes after administration of somnopentyl) from a urethra internal pressure value before compound administration (0 minute) was 100%.
On to `CCc1cccc(Cn2c3c(c4cccnc42)CCN(C(=O)CC24CCC(C(=O)O)(CC2)C4)C3)c1` [Example 6(72), 4-{2-[9-(3-ethylbenzyl)-5,6,8,9-tetrahydro-7H-pyrido[4′,3′:4,5]pyrrolo[2,3-b]pyridin-7-yl]-2-oxoethyl}bicyclo[2.2.1]heptane-1-carboxylic acid], for which the “urethra internal pressure reduction rate” value is 25%.

The next data set deals with Crl:CD (Sparague-Dawley) male rat. Description: Measurement of blood pressure, heart rate in rat under wakefulness. The class given is in vivo. The settings on record: conscious rat, 100, 300 mg/kg forcedly orally administered, up to 180 minutes. On the procedure: A Crl:CD (Sparague-Dawley) male rat (Charles River Laboratories Japan, Inc., 8 weeks old) was anesthetized by inhalation of isoflurane. A catheter (INTRAMEDIC POLYETHYLENE Tubing PE50, CLAY ADAMS) was inserted and indwelled in a femoral artery and another end was exposed from dorsal skin. The rat was placed in a rearing cage for blood pressure measurement. After elapse of 2 hours or more from the insertion of the catheter, each of the compound of Reference Example 2 and the compound of Example 6(72) (dose: 100, 300 mg/kg) was forcedly orally administered, and blood pressure was measured under no anesthesia and no restraint. The blood pressure was measured by connecting the catheter inserted in the femoral artery and a blood pressure transducer (DX-360, Nihon Kohden Corporation) and passing through an amplifier for blood pressure measurement (Coupler•Amplifier PP-101HAP-101H, Nihon Kohden Corporation). Blood pressure signals were captured into a data acquisition analysis system (HEM 3.5, NOTOCORD SYSTEM S.A.) through a polygraph system (PEG-1000, Nihon Kohden Corporation) to measure blood pressure (systolic pressure, diastolic pressure, mean blood pressure) and heart rate (measured from blood pressure pulse wave). […] The data were accumulated as measured values at respective time points and % variation values in which each value before administration was taken as 100.
On to `CCc1cccc(Cn2c3c(c4cccnc42)CCN(C(=O)CC24CCC(C(=O)O)(CC2)C4)C3)c1` [Example 6(72), 4-{2-[9-(3-ethylbenzyl)-5,6,8,9-tetrahydro-7H-pyrido[4′,3′:4,5]pyrrolo[2,3-b]pyridin-7-yl]-2-oxoethyl}bicyclo[2.2.1]heptane-1-carboxylic acid], for which the “influence on a circulatory organ (blood pressure, heart rate)” value is given as “no influence of the compound of Example 6(72) that is a compound of the present invention was observed on a circulatory organ”. The same measure, in the same setting: to `O=C(C[C@H]1CC[C@H](C(=O)O)CC1)N1CCc2c(n(Cc3ccc(F)cc3F)c3ncccc23)C1` [Reference Example 2, trans-4-{2-[9-(2,4-difluorobenzyl)-5,6,8,9-tetrahydro-7H-pyrido[4′,3′:4,5]pyrrolo[2,3-b]pyridin-7-yl}-2-oxoethyl]cyclohexanecarboxylic acid, reference compound] belongs “An influence of the compound of Reference Example 2 on a circulatory organ was observed”.
